Source: the supplement of paper PMC10307832

Tests used:
Assay in all cases: relative viability (nuclei count vs DMSO), 5 days (fraction); higher = more cells survive
[1] = compound: NCC(=O)Nc1ccc(-n2nc(C(F)(F)F)cc2-c2ccc3c(ccc4ccccc43)c2)cc1 + NC(=O)Nc1cc(-c2cccc(F)c2)sc1C(=O)N[C@H]1CCCNC1 [AZD7762] (partner 0.2 µM)
Summary of the method: (§1)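 Relative viability was taken as the ratio of nuclei in treated wells to nuclei in vehicle wells. Lung cancer cell lines in 1536-well plates received compounds by pin tool one day after seeding, either one drug alone or a fixed anchor-drug dose plus five library-drug doses (not always all listed) in √10 steps. Nuclei were counted on 4× images after 5 days of treatment, and values are medians of duplicate plates.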

[2] = compound: NCC(=O)Nc1ccc(-n2nc(C(F)(F)F)cc2-c2ccc3c(ccc4ccccc43)c2)cc1 + CCNC(=O)c1noc(-c2cc(C(C)C)c(O)cc2O)c1-c1ccc(CN2CCOCC2)cc1 [Luminespib] (partner 0.01 µM)
Summary of the method: as §1

[3] = compound: NCC(=O)Nc1ccc(-n2nc(C(F)(F)F)cc2-c2ccc3c(ccc4ccccc43)c2)cc1 + CS(=O)(=O)CCNCc1ccc(-c2ccc3ncnc(Nc4ccc(OCc5cccc(F)c5)c(Cl)c4)c3c2)o1 [Lapatinib] (partner 2 µM)
Summary of the method: as §1

[4] = compound: NCC(=O)Nc1ccc(-n2nc(C(F)(F)F)cc2-c2ccc3c(ccc4ccccc43)c2)cc1 + COc1cccc2cc(-c3nc([C@H]4CC[C@H](C(=O)O)CC4)n4ncnc(N)c34)[nH]c12 [OSI-027] (partner 0.5 µM)
Summary of the method: as §1

Row | Cell Line | relative viability ([1]; first compound 0.02 µM) | relative viability ([1]; first compound 0.06325 µM) | relative viability ([1]; first compound 0.2 µM) | relative viability ([1]; first compound 0.6325 µM) | relative viability ([1]; first compound 2 µM) | relative viability ([2]; first compound 0.02 µM) | relative viability ([2]; first compound 0.06325 µM) | relative viability ([2]; first compound 0.2 µM) | relative viability ([2]; first compound 0.6325 µM) | relative viability ([2]; first compound 2 µM) | relative viability ([3]; first compound 0.02 µM) | relative viability ([3]; first compound 0.06325 µM) | relative viability ([3]; first compound 0.2 µM) | relative viability ([3]; first compound 0.6325 µM) | relative viability ([3]; first compound 2 µM) | relative viability ([4]; first compound 0.02 µM) | relative viability ([4]; first compound 0.06325 µM) | relative viability ([4]; first compound 0.2 µM) | relative viability ([4]; first compound 0.6325 µM) | relative viability ([4]; first compound 2 µM)
1 | 201T | 0.599 | 0.657 | 0.625 | 0.656 | 0.601 | 1.1 | 1.07 | 1.11 | 1.03 | 1.06 | 1.04 | 1.07 | 0.996 | 1.08 | 1.04 | 0.806 | 0.769 | 0.724 | 0.649 | 0.606
2 | A549 |  |  |  |  |  |  |  |  |  |  | 1.02 | 1.02 | 0.994 | 1.03 | 0.95 |  |  |  |  | 
3 | A-427 | 0.757 | 0.719 | 0.854 | 0.693 | 0.786 | 0.886 | 0.849 | 1.06 | 0.864 | 0.996 | 1.08 | 1.11 | 1.14 | 1.04 | 1.11 |  | 0.454 | 0.438 | 0.496 | 0.457
4 | ABC-1 | 0.811 | 0.899 |  | 0.758 | 0.866 | 0.478 | 0.813 |  | 0.372 | 0.748 | 1.26 | 1.01 | 0.983 | 1.05 | 1.11 | 0.558 | 0.409 |  | 0.471 | 0.542
5 | BEN | 0.627 | 0.76 | 0.789 | 0.798 | 0.628 | 0.254 | 0.67 | 0.211 | 0.467 | 0.311 | 0.738 | 1.11 | 0.701 | 0.708 | 0.542 | 0.281 | 0.32 | 0.296 | 0.326 | 0.297
6 | CAL-12T | 0.739 | 0.622 | 0.718 | 0.669 | 0.588 | 0.54 | 0.22 | 0.531 | 0.536 | 0.463 | 0.671 | 0.823 | 0.672 | 0.709 | 0.679 | 0.619 | 0.651 | 0.644 | 0.604 | 0.621
7 | COR-L23 |  |  |  |  |  | 0.599 | 0.652 | 0.772 | 0.57 | 0.757 | 0.97 | 0.997 | 1.2 | 0.938 | 0.659 | 0.765 | 0.894 | 0.836 | 0.693 | 0.755
8 | COR-L 105 |  |  |  |  |  | 0.915 | 0.78 | 1.01 | 0.704 | 1.15 | 0.418 | 0.33 | 0.401 | 0.39 | 0.437 | 0.593 | 0.626 | 0.623 | 0.776 | 0.6
9 | Calu-6 |  |  |  |  |  |  |  |  |  |  | 0.969 | 1.12 | 1.19 | 1.16 | 0.963 |  |  |  |  | 
10 | ChaGo-K-1 | 0.81 | 0.869 | 0.807 | 0.913 | 0.897 | 0.614 | 0.501 | 0.54 | 0.548 | 0.567 |  |  |  |  |  | 0.475 | 0.661 | 0.468 | 0.592 | 0.548
11 | EBC-1 |  |  |  |  |  |  |  |  |  |  | 0.21 | 0.219 | 0.215 | 0.222 | 0.226 |  |  |  |  | 
